Assay: Metabolic stability in minipig intestinal fluid, quantification of licofelone by HPLC/UV
Type: in vitro ADME, Gottingen SPF minipig
Conditions: diluted minipig intestinal fluid; result in words
Experimental: Metabolic Stability of NSAID in Minipig Intestinal Fluid—Quantification of Licofelone
Intestinal tissue/fluid and enterocyte samples were taken from a 10 month old, female Gottingen SPF minipig. The body weight was 21 kg. The minipig was fasted for approximately 28 hours before sampling of intestinal fluid/tissues and enterocytes. On the day of sampling, the minipig was weighed and anaesthetised. The animal was killed by exsanguination before the sampling of intestinal fluid. An intestinal segment was ligated at both ends before removal. The isolated tissue was placed in isotonic saline and opened by a longitudinal cut for sampling of intestinal fluid.
The intestinal tissue from each segment was transferred into a Centrifuge Tube, immersed in 10 ml 50mM phosphate buffer, pH 6.8 and frozen at −70° C.
b) Incubation Experiments with Minipig Intestinal Fluid (without FaSSIF) […]
A set of six reference solutions (solvent: 1 vol IF and 4 vol 2% bovine serum albumin in FaSSIF pH 6.5) with licofelone concentrations between 38.0 and 0.19 μg/ml and the solvent without licofelone were analysed in duplicate. The obtained concentration/peak area data pairs were subjected to linear regression analysis and the resulting calibration curve (r^2=0.9999) was used for quantification of licofelone in incubation experiments.

Structure (SMILES) | release of licofelone compared with Examples bearing a hydroxy group or an MMF residue as R
CC1(C)Cc2c(-c3ccccc3)c(-c3ccc(Cl)cc3)c(CC(=O)OCCOCCOCCOCCOC(=O)Cc3c(-c4ccc(Cl)cc4)c(-c4ccccc4)c4n3CC(C)(C)C4)n2C1 [Reference Example 4b, [2-(4-Chloro-phenyl)-6,6-dimethyl-1-phenyl-6,7-dihydro-5H-pyrrolizin-3-yl]acetic acid 2-{2-[2-(2-{2-[2-(4-chloro-phenyl)-6,6-dimethyl-1-phenyl-6,7-dihydro-5H-pyrrolizin-3-yl]-acetoxy}-ethoxy)-ethoxy]-ethoxy}-ethyl ester] | significantly lower
CC1(C)Cc2c(-c3ccccc3)c(-c3ccc(Cl)cc3)c(CC(=O)OCCOC(=O)Cc3c(-c4ccc(Cl)cc4)c(-c4ccccc4)c4n3CC(C)(C)C4)n2C1 [Reference Example 5b, 2-[2-[2-(4-chlorophenyl)-6,6-di-methyl-1-phenyl-5,7-dihydropyrrolizin-3-yl]acetyl]oxyethyl-2-[2-(4-chloro-phenyl)-6,6-dimethyl-1-phenyl-5,7-dihydropyrrolizin-3-yl]acetate] | significantly lower

Reference: US20200239473A1, “NEW DERIVATIVES OF LICOFELONE” (priority 2015, published 2020)
